Among the data in US11186588B2 (AYUMI PHARMACEUTICAL CORPORATION, priority 2017, dated 2021) are inhibition and IC50 values, retold here.

Assay [1] addresses Recombinant BRD4 (44-168) protein (Homo sapiens (Human), UniProt O60885). The experiment in a line: BRD4-H4KAc4 binding assay (amplified luminescence proximity homogeneous assay, AlphaScreen). The settings on record: 10 uM. The method in brief:
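His/FLAG-tagged BRD4 (44-168) and biotinylated tetra-acetylated H4 peptide, each added as 250 nM solutions, incubated with compound 60 min at room temperature in the dark, then AlphaScreen beads 60 min. Emission 520-620 nm at 680 nm excitation, duplicates; % inhibition from blank- and DMSO-corrected signal.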

The test system of assay [2] is NF-κB. The experiment in a line: NF-κB reporter gene assay (TNF-α stimulated A549/NF-κB-luc cells). The assay is classed as cell-based. The settings on record: Homo sapiens, TNF-α stimulation. On the procedure: In order to evaluate NF-κB inhibitory activity of the present compounds, NF-κB reporter gene assay was carried out. The specific method is described below.
Gene recombinant human TNF-α (available from R&D systems, Cat No. 210-TA) was dissolved in D-PBS(−) (available from Wako Pure Chemical Industries, Ltd., Cat No. 293-72601) to prepare 100 μg/mL of TNF-α solution stock solution. 100 μg/mL of the TNF-α solution stock solution was diluted with the culture medium to prepare 10 ng/mL of TNF-α solution.
A549/NF-κB-luc cells (available from Panomics, Cat No. LR0051) were prepared at 375,000 cells/mL in the culture medium. The 375,000 cells/mL A549/NF-κB-luc cell suspension was seeded at 80 μL each on a white 96-well plate (available from Greiner, Cat No. 655073). One hour after seeding the cells, 10 μL of 2% DMSO solution (control) and each compound solution in each concentration were added to each well of the 96-well plate. One hour after the addition of each compound solution, 10 ng/mL of the TNF-α solution (10 μL) was added to each well of the 96-well plate. Three hours after the addition of 10 ng/mL of the TNF-α solution, 100 μL of Steady-Glo reagent (available from Promega, Cat No. E2510) was added to each well of the 96-well plate. After 30 to 90 minutes of the addition of the Steady-Glo reagent, the luminescence intensity of each well was detected by EnVision multilabel counter (available from PerkinElmer).
NF-κB inhibition rate (%) was calculated by the following equation using Microsoft EXCEL 2010. NF-κB inhibition rate (%)=100−{(luminescence intensity average value of each compound added well)−(average value of luminescence intensity of blank well))/(average value of luminescence intensity of control well)−(average value of luminescence intensity of blank well)}×100 In addition, IC50 values were calculated from the calculated NF-κB inhibition rate (%) using curve fitting software XLfit (available from IDBS).
A general note: A reporter such as luciferase makes a cellular process visible.

In the case of `Cc1sc2c(c1C)C(c1ccc(Cl)cc1)=NN(Cc1cccc(N(C)C)c1)c1nnc(C)n1-2` [Example 55, 3-((4-(4-chlorophenyl)-2,3,9-trimethyl-6H-thieno[2,3-e][1,2,4]triazolo[3,4-c][1,2,4]triazepin-6-yl)methyl)-N,N-dimethylaniline], the inhibition (usually the drop in the measured response relative to a control, in per cent) at 10 µM in assay [1] was 100%. Further, in assay [2], the IC50 (commonly the midpoint of a concentration-inhibition curve) was 2760 nM.
Consider `CC(=O)Nc1cc(CN2N=C(c3ccc(Cl)cc3)c3c(sc(C)c3C)-n3c(C)nnc32)ccn1` [Example 56, N-(4-((4-(4-chlorophenyl)-2,3,9-trimethyl-6H-thieno[2,3-e][1,2,4]triazolo[3,4-c][1,2,4]triazepin-6-yl)methyl)pyridin-2-yl)acetamide], for which the inhibition at 10 µM in assay [1] is 100%. Inhibition in assay [2] was half-maximal at 942 nM (IC50).
The matching figures for `Cc1sc2c(c1C)C(c1ccc(Cl)cc1)=NN(Cc1ccnc(N)c1)c1nnc(C)n1-2` [Example 57, 4-((4-(4-chlorophenyl)-2,3,9-trimethyl-6H-thieno[2,3-e][1,2,4]triazolo[3,4-c][1,2,4]triazepin-6-yl)methyl)pyridin-2-amine]: 100% and 558 nM.
For `COc1ccc(CN2N=C(c3ccc(Cl)cc3)c3ccsc3-n3c(C)nnc32)cc1` [Example 58, 4-(4-chlorophenyl)-6-(4-methoxybenzyl)-9-methyl-6H-thieno[2,3-e][1,2,4]triazolo[3,4-c][1,2,4]triazepine] the same measures were 100% and 728 nM.
The matching figures for `Cc1nnc2n1-c1sccc1C(c1ccc(Cl)cc1)=NN2Cc1ccccc1` [Example 60, 6-benzyl-4-(4-chlorophenyl)-9-methyl-6H-thieno[2,3-e][1,2,4]triazolo[3,4-c][1,2,4]triaz epine]: 100% and 1690 nM.
As to `Cc1nnc2n1-c1sccc1C(c1ccc(Cl)cc1)=NN2Cc1cccnc1` [Example 61, 4-(4-chlorophenyl)-9-methyl-6-(pyridin-3-ylmethyl)-6H-thieno[2,3-e][1,2,4]triazolo[3,4-c][1,2,4]triazepine], the inhibition at 10 µM in assay [1] turned out to be 100%. For the same molecule, the half-maximal inhibitory concentration (IC50) in assay [2] turned out to be 377 nM.
Turning to `Cc1nnc2n1-c1sccc1C(c1ccc(Cl)cc1)=NN2Cc1ccncc1` [Example 63, 4-(4-chlorophenyl)-9-methyl-6-(pyridin-4-ylmethyl)-6H-thieno[2,3-e][1,2,4]triazolo[3,4-c][1,2,4]triazepine], the inhibition at 10 µM in assay [1] is 100%. Besides, it took 5240 nM to reach half-maximal inhibition in assay [2] (IC50).
Regarding `COc1cccc(CN2N=C(c3ccc(Cl)cc3)c3ccsc3-n3c(C)nnc32)c1` [Example 64, 4-(4-chlorophenyl)-6-(3-methoxybenzyl)-9-methyl-6H-thieno[2,3-e][1,2,4]triazolo[3,4-c][1,2,4]triazepine], the inhibition at 10 µM in assay [1] came to 100%. The IC50 in assay [2] is 5490 nM.
For `COc1ccc(CN2N=C(c3ccc(Cl)cc3)c3cc(C)sc3-n3c(C)nnc32)cc1` [Example 65, 4-(4-chlorophenyl)-6-(4-methoxybenzyl)-2,9-dimethyl-6H-thieno[2,3-e][1,2,4]triazolo[3,4-c][1,2,4]triazepine] the same measures were 100% and 896 nM.
For `Cc1sc2c(c1C)C(c1ccc([N+](=O)[O-])cc1)=NN(Cc1cccnc1)c1nnc(C)n1-2` [Example 70, 2,3,9-trimethyl-4-(4-nitrophenyl)-6-(pyridin-3-ylmethyl)-6H-thieno[2,3-e][1,2,4]triazolo[3,4-c][1,2,4]triazepine] the same measures were 100% and 1830 nM.
On to `Cc1sc2c(c1C)C(c1cccc(Cl)c1)=NN(Cc1cccnc1)c1nnc(C)n1-2` [Example 73, 4-(3-chlorophenyl)-2,3,9-trimethyl-6-(pyridin-3-ylmethyl)-6H-thieno[2,3-e][1,2,4]triazolo[3,4-c][1,2,4]triazepine], for which the inhibition at 10 µM in assay [1] stood at 100%. In addition, in assay [2], it took 246 nM to reach half-maximal inhibition (IC50).
For `COc1ccccc1C1=NN(Cc2cccnc2)c2nnc(C)n2-c2sc(C)c(C)c21` [Example 74, 4-(2-methoxyphenyl)-2,3,9-trimethyl-6-(pyridin-3-ylmethyl)-6H-thieno[2,3-e][1,2,4]triazolo[3,4-c][1,2,4]triazepine] the same measures were 100% and 2140 nM.
As to `COc1cccc(C2=NN(Cc3cccnc3)c3nnc(C)n3-c3sc(C)c(C)c32)c1` [Example 75, 4-(3-methoxyphenyl)-2,3,9-trimethyl-6-(pyridin-3-ylmethyl)-6H-thieno[2,3-e][1,2,4]triazolo[3,4-c][1,2,4]triazepine], the inhibition at 10 µM in assay [1] turned out to be 100%. For the same molecule, the IC50 in assay [2] was determined as 1930 nM.
For `Cc1sc2c(c1C)C(c1ccc(Cl)cc1)=NN(Cc1cccnc1C#N)c1nnc(C)n1-2` [Example 77, 3-((4-(4-chlorophenyl)-2,3,9-trimethyl-6H-thieno[2,3-e][1,2,4]triazolo[3,4-c][1,2,4]triazepin-6-yl)methyl)picolinonitrile] the same measures were 100% and 1950 nM.
Consider `Cc1sc2c(c1C)C(c1ccc(Cl)cc1)=NN(Cc1cccnc1C(F)(F)F)c1nnc(C)n1-2` [Example 78, 4-(4-chlorophenyl)-2,3,9-trimethyl-6-((2-(trifluoromethyl)pyridin-3-yl)methyl)-6H-thieno[2,3-e][1,2,4]triazolo[3,4-c][1,2,4]triazepine], for which, in assay [1], the inhibition at 10 µM is 100%. Besides, the IC50 in assay [2] was found to be 1260 nM.
The matching figures for `Cc1sc2c(c1C)C(c1ccc(Cl)cc1)=NN(Cc1cccnc1Br)c1nnc(C)n1-2` [Example 79, 6-((2-bromopyridin-3-yl)methyl)-4-(4-chlorophenyl)-2,3,9-trimethyl-6H-thieno[2,3-e][1,2,4]triazolo[3,4-c][1,2,4]triazepine]: 100% and 742 nM.
For `Cc1sc2c(c1C)C(c1ccc(Cl)cc1)=NN(Cc1cccnc1[N+](=O)[O-])c1nnc(C)n1-2` [Example 80, 4-(4-chlorophenyl)-2,3,9-trimethyl-6-((2-nitropyridin-3-yl)methyl)-6H-thieno[2,3-e][1,2,4]triazolo[3,4-c][1,2,4]triazepine], the inhibition at 10 µM in assay [1] was 100%. Moreover, the IC50 in assay [2] is 1110 nM.
The matching figures for `Cc1sc2c(c1C)C(c1ccc(Cl)cc1)=NN(Cc1cccnc1N)c1nnc(C)n1-2` [Example 81, 3-((4-(4-chlorophenyl)-2,3,9-trimethyl-6H-thieno[2,3-e][1,2,4]triazolo[3,4-c][1,2,4]triazepin-6-yl)methyl)pyridin-2-amine]: 100% and 47.2 nM.
For the molecule `CC(=O)Nc1ncccc1CN1N=C(c2ccc(Cl)cc2)c2c(sc(C)c2C)-n2c(C)nnc21` [Example 82, N-(3-((4-(4-chlorophenyl)-2,3,9-trimethyl-6H-thieno[2,3-e][1,2,4]triazolo[3,4-c][1,2,4]triazepin-6-yl)methyl)pyridin-2-yl)acetamide], the inhibition at 10 µM in assay [1] came out at 100%. For the same molecule, in assay [2], it took 135 nM to reach half-maximal inhibition (IC50).
With `COC(=O)c1ncccc1CN1N=C(c2ccc(Cl)cc2)c2c(sc(C)c2C)-n2c(C)nnc21` [Example 83, methyl 3-((4-(4-chlorophenyl)-2,3,9-trimethyl-6H-thieno[2,3-e][1,2,4]triazolo[3,4-c][1,2,4]triazepin-6-yl)methyl)picolinate], in assay [1], the inhibition at 10 µM turned out to be 100%. Besides, the IC50 in assay [2] stood at 2820 nM.
As to `Cc1sc2c(c1C)C(c1ccc(Cl)cc1)=NN(Cc1cccnc1CO)c1nnc(C)n1-2` [Example 86, (3-((4-(4-chlorophenyl)-2,3,9-trimethyl-6H-thieno[2,3-e][1,2,4]triazolo[3,4-c][1,2,4]triazepin-6-yl)methyl)pyridin-2-yl)methanol], the inhibition at 10 µM in assay [1] was 100%. 95.3 nM corresponded to half-maximal inhibition in assay [2] (IC50).
For `CCOc1ncccc1CN1N=C(c2ccc(Cl)cc2)c2c(sc(C)c2C)-n2c(C)nnc21` [Example 87, 4-(4-chlorophenyl)-6-((2-ethoxypyridin-3-yl)methyl)-2,3,9-trimethyl-6H-thieno[2,3-e][1,2,4]triazolo[3,4-c][1,2,4]triazepine] the same measures were 100% and 1390 nM.
As to `Cc1sc2c(c1C)C(c1ccc(Cl)cc1)=NN(Cc1cc(F)cnc1F)c1nnc(C)n1-2` [Example 88, 4-(4-chlorophenyl)-6-((2,5-difluoropyridin-3-yl)methyl)-2,3,9-trimethyl-6H-thieno[2,3-e][1,2,4]triazolo[3,4-c][1,2,4]triazepine], the inhibition at 10 µM in assay [1] came out at 100%. In assay [2], this molecule registered an IC50 of 631 nM.
